Assay [1] has as its target 5-hydroxytryptamine receptor 7 (Homo sapiens, UniProt P34969). Kind of assay: Selectivity interaction (GPCR panel (PDSP screen)) EUB0000252b HTR7.
The target of assay [2] is Cyclin-dependent kinase 9 (Homo sapiens) (UniProt P50750). Kind of assay: Selectivity interaction (Kinase Profiler (Millipore)) EUB0000677a CDK9. As to conditions: at 1 µM.
For assay [3], the target named is Casein kinase II subunit alpha (Homo sapiens, UniProt P68400). Kind of assay: Selectivity interaction (Kinase panel (radiometric kinase assay)) EUB0000677a CSNK2A1.
The target in assay [4] is Serine/threonine-protein kinase PLK1 (Homo sapiens, UniProt P53350). As to conditions: at 1 µM.
In assay [5] the test system is T1, Receptor-type tyrosine-protein kinase FLT3 (Homo sapiens), P36888 [D835Y].
T1 sequence (whole entry): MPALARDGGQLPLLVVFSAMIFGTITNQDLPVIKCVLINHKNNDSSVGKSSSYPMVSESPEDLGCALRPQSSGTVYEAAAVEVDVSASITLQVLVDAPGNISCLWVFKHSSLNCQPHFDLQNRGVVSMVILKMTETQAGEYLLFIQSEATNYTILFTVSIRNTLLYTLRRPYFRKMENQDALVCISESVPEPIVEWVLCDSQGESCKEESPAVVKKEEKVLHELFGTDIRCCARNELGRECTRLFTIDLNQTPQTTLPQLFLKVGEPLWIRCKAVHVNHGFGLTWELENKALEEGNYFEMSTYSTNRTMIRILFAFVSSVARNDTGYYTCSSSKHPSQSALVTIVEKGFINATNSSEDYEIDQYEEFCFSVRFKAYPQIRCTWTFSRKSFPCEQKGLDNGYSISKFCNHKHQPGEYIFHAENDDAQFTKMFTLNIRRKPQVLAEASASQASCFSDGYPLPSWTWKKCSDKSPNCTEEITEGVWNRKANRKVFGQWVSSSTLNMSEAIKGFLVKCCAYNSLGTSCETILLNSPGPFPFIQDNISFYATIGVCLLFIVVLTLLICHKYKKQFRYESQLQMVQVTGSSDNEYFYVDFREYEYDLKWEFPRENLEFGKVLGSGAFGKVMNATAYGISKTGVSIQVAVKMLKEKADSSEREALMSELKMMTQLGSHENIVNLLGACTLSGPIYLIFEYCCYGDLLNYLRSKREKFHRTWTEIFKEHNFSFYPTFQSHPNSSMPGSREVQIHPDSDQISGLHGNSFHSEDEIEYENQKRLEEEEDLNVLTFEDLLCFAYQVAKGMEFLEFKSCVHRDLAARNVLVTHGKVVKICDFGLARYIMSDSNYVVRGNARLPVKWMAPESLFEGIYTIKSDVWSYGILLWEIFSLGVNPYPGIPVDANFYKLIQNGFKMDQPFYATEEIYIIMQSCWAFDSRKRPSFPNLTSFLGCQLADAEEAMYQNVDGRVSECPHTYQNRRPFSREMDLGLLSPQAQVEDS
As to conditions: at 1 µM.

The target in assay [6] is Histamine H3 receptor (Homo sapiens, UniProt Q9Y5N1). As to the kind of experiment: Selectivity interaction (GPCR panel (PDSP screen)) EUB0000714a HRH3.
Assay [7] concerns the target T2, Dual specificity mitogen-activated protein kinase kinase 5 (Homo sapiens) (UniProt Q13163).
T2 sequence (whole entry): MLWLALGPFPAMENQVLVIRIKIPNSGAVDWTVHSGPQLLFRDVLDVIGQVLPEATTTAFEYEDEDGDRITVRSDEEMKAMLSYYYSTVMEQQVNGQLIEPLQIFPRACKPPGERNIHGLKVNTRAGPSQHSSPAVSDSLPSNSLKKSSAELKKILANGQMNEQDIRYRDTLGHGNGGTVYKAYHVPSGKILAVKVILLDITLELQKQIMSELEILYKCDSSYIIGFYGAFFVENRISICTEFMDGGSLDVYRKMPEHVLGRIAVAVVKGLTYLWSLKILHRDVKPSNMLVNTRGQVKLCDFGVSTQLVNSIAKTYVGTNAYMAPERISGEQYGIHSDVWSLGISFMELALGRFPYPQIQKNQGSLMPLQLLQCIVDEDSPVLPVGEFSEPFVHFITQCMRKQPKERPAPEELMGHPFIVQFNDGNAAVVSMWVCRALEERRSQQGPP
Kind of assay: Selectivity interaction (KinomeScan (DiscoverX)) EUB0000714a MAP2K5. The following applies: at 100 nM.

In assay [8] the target is Dual specificity mitogen-activated protein kinase kinase 3 (Homo sapiens) (UniProt P46734). Kind of assay: Selectivity interaction (KinomeScan (DiscoverX)) EUB0000714a MAP2K3. The following applies: at 100 nM.
Assay [9] deals with High affinity nerve growth factor receptor (Homo sapiens, UniProt P04629). Kind of assay: Selectivity interaction (KinomeScan (DiscoverX)) EUB0000714a NTRK1. As to conditions: at 100 nM.
Assay [10] deals with Phosphatidylinositol 4,5-bisphosphate 3-kinase catalytic subunit alpha isoform (Homo sapiens, UniProt P42336). As to the kind of experiment: Selectivity interaction (KinomeScan (DiscoverX)) EUB0000714a PIK3CA. The following applies: at 100 nM.
Phosphatidylinositol 4,5-bisphosphate 3-kinase catalytic subunit alpha isoform, sequence (P42336 whole entry, canonical isoform): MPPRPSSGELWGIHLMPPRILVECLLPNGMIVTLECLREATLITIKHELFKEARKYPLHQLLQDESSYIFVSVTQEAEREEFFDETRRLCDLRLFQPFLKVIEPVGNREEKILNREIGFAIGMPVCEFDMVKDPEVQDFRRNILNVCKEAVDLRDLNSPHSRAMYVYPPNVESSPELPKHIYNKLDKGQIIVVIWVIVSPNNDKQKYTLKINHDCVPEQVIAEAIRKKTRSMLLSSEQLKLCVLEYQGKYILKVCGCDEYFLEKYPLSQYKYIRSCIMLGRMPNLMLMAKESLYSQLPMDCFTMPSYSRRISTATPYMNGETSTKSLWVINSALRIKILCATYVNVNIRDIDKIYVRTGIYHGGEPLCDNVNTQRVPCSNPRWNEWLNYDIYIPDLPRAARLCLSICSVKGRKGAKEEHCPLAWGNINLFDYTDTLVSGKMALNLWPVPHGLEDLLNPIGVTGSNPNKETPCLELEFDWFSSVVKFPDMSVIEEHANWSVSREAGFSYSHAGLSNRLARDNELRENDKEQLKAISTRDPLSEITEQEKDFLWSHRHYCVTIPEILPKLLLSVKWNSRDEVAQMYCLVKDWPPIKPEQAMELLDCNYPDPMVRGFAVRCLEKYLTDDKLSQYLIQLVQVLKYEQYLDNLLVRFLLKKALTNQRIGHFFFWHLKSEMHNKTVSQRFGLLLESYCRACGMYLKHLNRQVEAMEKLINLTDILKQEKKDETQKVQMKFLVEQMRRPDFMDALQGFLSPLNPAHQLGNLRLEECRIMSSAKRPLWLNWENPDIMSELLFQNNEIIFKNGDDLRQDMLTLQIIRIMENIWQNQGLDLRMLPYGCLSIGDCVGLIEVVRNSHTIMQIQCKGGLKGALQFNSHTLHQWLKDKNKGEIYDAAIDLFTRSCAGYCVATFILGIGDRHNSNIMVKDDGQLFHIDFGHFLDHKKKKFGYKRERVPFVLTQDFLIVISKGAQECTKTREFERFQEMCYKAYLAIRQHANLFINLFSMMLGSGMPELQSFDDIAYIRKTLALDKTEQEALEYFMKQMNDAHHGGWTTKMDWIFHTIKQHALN

Serine/threonine-protein kinase PLK1, sequence (P53350 whole entry): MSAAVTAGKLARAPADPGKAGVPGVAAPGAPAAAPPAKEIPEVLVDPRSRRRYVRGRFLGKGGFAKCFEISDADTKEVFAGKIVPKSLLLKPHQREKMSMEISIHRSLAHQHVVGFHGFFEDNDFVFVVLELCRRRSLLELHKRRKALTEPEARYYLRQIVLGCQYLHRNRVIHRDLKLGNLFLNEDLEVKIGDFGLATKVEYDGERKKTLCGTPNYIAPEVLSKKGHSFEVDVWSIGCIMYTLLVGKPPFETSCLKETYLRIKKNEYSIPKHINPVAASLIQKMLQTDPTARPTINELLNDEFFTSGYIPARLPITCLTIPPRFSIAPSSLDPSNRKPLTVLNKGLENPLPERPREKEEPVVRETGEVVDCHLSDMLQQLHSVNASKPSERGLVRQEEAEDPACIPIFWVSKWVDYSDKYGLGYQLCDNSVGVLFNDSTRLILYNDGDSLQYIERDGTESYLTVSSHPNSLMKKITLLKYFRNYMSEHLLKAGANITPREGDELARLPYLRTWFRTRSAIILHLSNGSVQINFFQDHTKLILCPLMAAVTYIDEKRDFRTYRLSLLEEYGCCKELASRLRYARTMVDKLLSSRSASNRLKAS
Histamine H3 receptor, sequence (Q9Y5N1 whole entry): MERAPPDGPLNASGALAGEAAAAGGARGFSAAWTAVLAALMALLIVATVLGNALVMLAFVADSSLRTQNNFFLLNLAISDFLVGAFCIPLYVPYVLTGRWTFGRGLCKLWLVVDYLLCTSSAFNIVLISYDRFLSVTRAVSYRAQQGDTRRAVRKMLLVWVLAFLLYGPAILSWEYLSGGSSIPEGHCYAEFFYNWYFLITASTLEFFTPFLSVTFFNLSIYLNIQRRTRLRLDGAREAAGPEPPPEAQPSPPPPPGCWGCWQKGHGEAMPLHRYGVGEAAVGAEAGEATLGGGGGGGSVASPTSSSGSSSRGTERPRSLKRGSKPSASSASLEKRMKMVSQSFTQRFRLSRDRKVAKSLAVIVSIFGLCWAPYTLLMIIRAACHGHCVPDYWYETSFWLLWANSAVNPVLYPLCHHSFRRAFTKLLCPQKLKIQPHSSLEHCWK
Cyclin-dependent kinase 9 (Homo sapiens), sequence (P50750 whole entry): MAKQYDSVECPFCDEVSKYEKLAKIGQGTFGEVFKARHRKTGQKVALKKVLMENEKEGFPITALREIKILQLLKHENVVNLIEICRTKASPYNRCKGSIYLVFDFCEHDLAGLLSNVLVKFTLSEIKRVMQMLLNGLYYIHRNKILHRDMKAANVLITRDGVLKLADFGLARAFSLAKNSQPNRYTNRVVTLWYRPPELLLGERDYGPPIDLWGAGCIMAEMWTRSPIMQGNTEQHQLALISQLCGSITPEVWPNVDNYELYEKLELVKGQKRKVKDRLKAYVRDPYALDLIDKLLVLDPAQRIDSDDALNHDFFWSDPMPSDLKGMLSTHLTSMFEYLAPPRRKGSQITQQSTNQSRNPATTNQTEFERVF
Dual specificity mitogen-activated protein kinase kinase 3 (Homo sapiens), sequence (P46734 whole entry): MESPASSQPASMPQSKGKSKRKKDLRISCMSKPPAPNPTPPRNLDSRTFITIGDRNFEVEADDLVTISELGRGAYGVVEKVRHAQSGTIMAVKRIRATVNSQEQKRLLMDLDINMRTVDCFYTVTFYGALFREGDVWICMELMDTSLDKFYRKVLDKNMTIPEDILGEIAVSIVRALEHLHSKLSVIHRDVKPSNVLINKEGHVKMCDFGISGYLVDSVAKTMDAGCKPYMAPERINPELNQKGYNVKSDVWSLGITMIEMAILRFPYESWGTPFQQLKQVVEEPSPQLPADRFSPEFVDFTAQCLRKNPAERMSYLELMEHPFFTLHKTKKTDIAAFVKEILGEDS
5-hydroxytryptamine receptor 7, sequence (P34969 whole entry): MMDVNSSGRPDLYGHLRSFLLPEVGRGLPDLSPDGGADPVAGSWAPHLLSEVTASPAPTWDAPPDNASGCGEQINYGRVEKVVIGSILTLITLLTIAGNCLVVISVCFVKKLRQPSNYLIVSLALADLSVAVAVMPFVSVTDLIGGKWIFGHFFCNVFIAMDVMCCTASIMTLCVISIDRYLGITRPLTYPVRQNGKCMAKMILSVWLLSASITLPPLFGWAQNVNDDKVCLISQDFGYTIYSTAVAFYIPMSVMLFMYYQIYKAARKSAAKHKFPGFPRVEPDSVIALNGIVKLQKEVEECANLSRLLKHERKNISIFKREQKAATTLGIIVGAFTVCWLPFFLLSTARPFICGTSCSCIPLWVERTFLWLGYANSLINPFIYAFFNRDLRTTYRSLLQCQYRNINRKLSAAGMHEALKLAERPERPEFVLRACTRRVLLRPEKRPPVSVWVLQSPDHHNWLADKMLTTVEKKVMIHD
High affinity nerve growth factor receptor, sequence (P04629 33-796 limits assumed): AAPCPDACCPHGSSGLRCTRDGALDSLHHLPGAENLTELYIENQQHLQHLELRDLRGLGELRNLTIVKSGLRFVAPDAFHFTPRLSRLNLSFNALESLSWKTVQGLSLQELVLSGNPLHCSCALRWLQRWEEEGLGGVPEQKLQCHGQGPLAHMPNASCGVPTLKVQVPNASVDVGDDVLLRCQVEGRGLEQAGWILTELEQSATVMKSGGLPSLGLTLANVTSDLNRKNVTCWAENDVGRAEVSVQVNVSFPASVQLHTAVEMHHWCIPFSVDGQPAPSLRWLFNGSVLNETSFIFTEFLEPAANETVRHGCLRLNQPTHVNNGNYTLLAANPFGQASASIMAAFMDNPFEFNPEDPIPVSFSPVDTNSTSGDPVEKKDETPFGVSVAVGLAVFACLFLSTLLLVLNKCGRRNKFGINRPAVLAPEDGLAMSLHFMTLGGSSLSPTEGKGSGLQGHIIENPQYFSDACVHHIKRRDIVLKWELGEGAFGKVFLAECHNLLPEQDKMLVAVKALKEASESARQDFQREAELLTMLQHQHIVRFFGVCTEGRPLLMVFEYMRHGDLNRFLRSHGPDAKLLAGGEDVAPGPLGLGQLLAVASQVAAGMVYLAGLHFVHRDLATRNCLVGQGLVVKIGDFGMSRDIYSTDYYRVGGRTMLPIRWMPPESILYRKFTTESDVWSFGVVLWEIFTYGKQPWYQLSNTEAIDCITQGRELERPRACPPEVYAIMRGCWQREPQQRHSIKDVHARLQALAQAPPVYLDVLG
Casein kinase II subunit alpha, sequence (P68400 whole entry): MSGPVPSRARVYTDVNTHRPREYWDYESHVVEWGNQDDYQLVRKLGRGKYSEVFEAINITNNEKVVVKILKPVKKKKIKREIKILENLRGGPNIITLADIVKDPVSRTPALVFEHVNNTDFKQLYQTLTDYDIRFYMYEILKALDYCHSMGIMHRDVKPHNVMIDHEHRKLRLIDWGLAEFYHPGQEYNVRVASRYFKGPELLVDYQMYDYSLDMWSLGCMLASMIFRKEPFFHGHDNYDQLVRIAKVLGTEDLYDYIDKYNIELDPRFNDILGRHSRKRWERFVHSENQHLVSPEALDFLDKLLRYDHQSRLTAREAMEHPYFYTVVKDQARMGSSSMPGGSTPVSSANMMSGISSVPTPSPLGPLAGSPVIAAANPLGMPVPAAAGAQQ

By Ki is commonly meant the dissociation constant of the complex between target and ligand, obtained from inhibition or displacement. High values mean a looser hold on the target, low ones a stronger hold on the target. Turning to `N#CC1(c2ccccn2)CCN(Cc2cc(C(=O)O)c(=O)n3ccccc23)CC1` [MSD-M1PAM], in [1], the Ki is above 10 µM.

In general, IC50 refers to the midpoint of a concentration-inhibition curve. Low readings indicate inhibition by little substance, high ones a need for much substance. Regarding `CN1CCN(c2ccc(OC(F)(F)F)c(Nc3ncc4c(n3)-c3c(c(C(N)=O)nn3CCO)CC4)c2)CC1` [ONVANSERTIB], the % of control in assay [2] turned out to be 10%; in assay [4], 3%; in assay [5] it was 9%. The IC50 in assay [3] was 0.826 µM.

In the case of `Cc1cc(Nc2nccc(C)n2)cc(-c2cnc([C@@]3(O)CC[C@H](C(=O)O)C(C)(C)C3)s2)c1` [MRL-SYKi], the Ki in [6] is above 10 µM. Moreover, the % of control was 25.2% in [7], 29.5% in [8], 30.2% in assay [9] and 14.7% in assay [10].

The values above are taken from ChEMBL document CHEMBL5212743, “Selectivity Literature for EUbOPEN Chemogenomics Library wave 3” (2023).
